Test results published in PMC10017685 (Nature Communications, 2023).
Values after ≈ are worked out from the molar mass of the structure shown. Like-named read-outs stand apart in the source and are kept apart here. Peptide text beside a SMILES is read from it.

What was measured:
[1] = test system: E. coli ATCC 43827; assay type: cell-based, Escherichia coli
Method: Verification of antimicrobial activity of the synthesized analogs was conducted on reference strains of E. coli ATCC 25922 and ATCC 43827 in the first phase of the experimental validation, and S. aureus ATCC 33591, E. coli ATCC 25922, E. coli ATCC 43827, A. baumannii ATCC BAA 1605, P. aeruginosa ATCC 9027 in the second phase.
All the strains were stored at -80 °C in Roti®-Store cryo vials (Carl Roth GmbH, Germany) and before the tests were transferred into fresh Mueller-Hinton Medium (BioMaxima, Poland) and incubated for 24 h at 37 °C. Fresh cultures were used in antimicrobial assay. The MIC values were evaluated by the broth microdilution method according to Clinical and Laboratory Standards Institute Protocol[86]. […] The experiments were conducted on 96-well microtiter plates, with a final volume of 100 μL. Inoculums densities were adjusted spectrophotometrically (Multiskan™ GO Microplate Spectrophotometer, Thermo Scientific) at the wavelength of 600 nm. The MICs were taken as the lowest drug concentration at which a visible growth of microorganisms was inhibited[87]. Moreover MBC was evaluated. After MIC examination the samples from MIC well and two higher concentrations were seeded on the agar plates. Section with no visible growth of bacterial colonies was reported as the MBC for each strain and compound. All experiments were conducted in triplicate. […]

[2] = test system: E. coli ATCC 25922; assay type: cell-based, Escherichia coli
Method: Fresh cultures were used in antimicrobial assay. […] Moreover MBC was evaluated. […] All experiments were conducted in triplicate.

[3] = test system: erythrocytes; conditions: cited from earlier work
Description: Supplement 41467_2023_36994_MOESM6_ESM.xlsx, sheet "MD calibration" | column: Hemolytic activity (HC50); Comment

[4] = test system: S. aureus ATCC 29212; conditions: ref https://dbaasp.org/peptide-card?id=8199; cited from earlier work
Description: page 7: Reviewer #2 (Remarks to the Author): The authors present a new method, HydrAMP, for antimicrobial peptide generation. The generative model of HydrAMP is a decoder, which produces a distribution over peptides in order to mimic the synthesis of the antimicrobial peptides in biological experiments. HydrAMP is the first model trained and used to identify active analogs of non-AMP prototypes. During training, they introduce an additional encoder to provide a variational approximation to help optimize the decoder. Their method is based on the conditional VAE model, which provides the foundat ...

[5] = test system: E. coli ATCC 25922; conditions: ref https://dbaasp.org/peptide-card?id=8199; cited from earlier work
[6] = experimentally confirmed activity, strain not given; ref Supplementary Data 3; cited from earlier work
Description: 21 (1 picture or pasted object on this page, not shown here)

[7] = test system: E. coli ATCC 25922; set-up: method as in DBAASP; conditions: origin dbaasp_ecoli; ref DBAASP; cited from earlier work
[8] = Supplementary Data 5F, analogue generation without additional preselection
[9] = first experimental round, broth microdilution (CLSI), Mueller-Hinton Broth, 0.5 × 10^5 CFU/mL, 1-[…], 18 h at 37 °C, triplicate

For `CC[C@H](C)[C@H](NC(=O)CNC(=O)[C@H](CO)NC(=O)[C@H](CC(C)C)NC(=O)[C@@H](NC(=O)[C@H](CCCNC(=N)N)NC(=O)CNC(=O)[C@@H](NC(=O)[C@H](CC(C)C)NC(=O)[C@@H]1CCCN1C(=O)[C@H](CC(C)C)NC(=O)[C@@H](N)Cc1ccccc1)[C@@H](C)CC)C(C)C)C(=O)N[C@@H](C)C(N)=O` [Temp-P1-3] (H-FLPLIGRVLSGIA-NH2), the “E. coli ATCC 43827 MIC” value [1, 8] was 512 µg/mL, the “MIC E. coli ATCC 43927” value [1, 9] was 512 µg/mL (≈ 378 µM) and the “E. coli ATCC 25922 MIC” value [2, 8] was 512 µg/mL. The “MIC E. coli ATCC 25922” value [2, 9] was 512 µg/mL (≈ 378 µM).

In the case of FFHHIFRGIVHVGKTIHRLVTG [Piscidin 1], the “Comment: toxicity” value [3] is given as “Active broad spetrum, toxic”.

In the case of FFSLIPSLVGGLISAFK [Stigmurin], the “MIC S. aureus ATCC 29212” value [4] is given as 8.68 µM and the “MIC E. coli ATCC 25922” value [5] is given as > 139 µM.

For FLRFIGSVIHGIGHLVHHIGVAL [Clavaspirin], the “MIC (moderately active AMP of MD validation set)” value [6] is given as 64 µg/mL.

For LKKLLKLLKPLLKL, the “Class (activity against E. coli ATCC 25922 in dedicated activity dataset)” value [7] is listed as 1 (positive (active) examples are peptides selected from DBAASP with experimentally verified MIC≤ 101.5≃ 32 against E. coli ATCC 25922).
